Experimental findings from patent US20150299233A1, “COMPOSITIONS AND METHODS COMPRISING RHENIUM FOR THE TREATMENT OF CANCERS” (Massachusetts Institute of Technology, priority 2014, published 2015) are described below.

By IC50 is commonly meant the concentration that gives 50% inhibition.

Format in all cases: cell-based, human
One test has as its system MRC-5. The test can be described thus: MTT cytotoxicity assay, MRC-5 normal lung fibroblasts. The conditions noted are these: for selectivity over normal fibroblast cells (IC50 higher in normal fibroblasts than in cancer cells): cancer cells versus normal fibroblast cells.
Test [1] relates to DU 145 (prostate carcinoma). The test can be described thus: MTT cytotoxicity assay, DU 145 cells. The conditions noted are these: Table 2; cisplatin-resistant cell line; 72 h exposure; read-out: IC50 DU 14S prostate carcinoma.
For a further test, the system named is confluent A549 cells. As to the kind of experiment: MTT cytotoxicity assay, confluent A549 cells. The following applies: for IC50: Table 2, confluent cells, 72 h exposure, read-out: IC50 A549 (confluent) lung carcinoma; for IC50 higher in confluent A549 cells than in A549 cells in log phase growth: confluent versus log phase. A general note: Tetrazolium dyes change colour on reduction, which living cells bring about.

Another test deals with PC-3. As to the kind of experiment: Cytotoxicity in the presence of necrostatin-1, PC-3 cells. The following applies: necrostatin-1 60 μM, t test p<0.05. As to the method:
In order to determine the cell-killing mechanism of 1 and 2, cytotoxicity studies in the presence of apoptosis and necrosis inhibitors were conducted. […] The possibility that 1 and 2 induce necroptosis was then investigated. Necroptosis is a well-regulated mode of cell death that is different from unregulated necrosis and apoptosis. Unlike unregulated necrosis, which can be induced by H2O2 or heat, necroptosis generally involved the interaction of protein kinases, RIP1 and RIP3, to initiate cell disintegration. This process can be blocked by necrostatin-1, a potent RIP1 kinase inhibitor. To determine whether 1 and 2 induced necroptosis and/or uncontrolled necrosis, cytotoxicity studies were conducted in the presence of necrostatin-1 (60 μM) and IM-54 (10 μM), an inhibitor of H2O2-induced necrosis. […] Therefore, 1- and 2-induced cell death relies on RIP1-RIP3 complex formation and not on the expression levels of the individual protein kinases. RIP1 can also form a cytosolic complex with Fas-associated death domain (FADD) and caspase 8, known as a ripoptosome, to initiate apoptosis (through caspase 8 cleavage).
Cytotoxicity MTT Assay. […] Cells (2×10^3 cells/well) were seeded in a 96-well plate. […] The absorbance of the solution wells was read at 550 nm. Absorbance values were normalized to DMSO-containing control wells and plotted as the concentration of test compound versus % cell viability. […]

In test [2] the test system is A549 cells. As to the kind of experiment: JC-1 mitochondrial membrane potential assay. The following applies: for JC-1 green fluorescence versus untreated cells (mitochondrial membrane disruption): 1, 2, shikonin 20 μM for 12 h, CCCP 5 μM for 12 h. As to the method:
The effect of 1 and 2 on the mitochondrial membrane potential was assessed by flow cytometry, using the JC-1 assay (5,5′,6,6′-tetrachloro-1,1′,3,3′-tetraethylbenzimidazolyl carbo-cyanine iodide). JC-1 is a cationic lipophilic dye that localizes in the mitochondria of healthy cells as red-emitting aggregates. If the mitochondrial membrane potential is disrupted, JC-1 forms green-emitting monomers. […] This could explain the high residual toxicity (>1 μM) observed for A549 cells co-incubated with the rhenium complexes (1 and 2) and necrostatin-1 (FIG. 1B).
JC-1 Assay. The JC-1 Mitochondrial Membrane Potential Assay Kit (Cayman) was used. The manufacturer's protocol was followed to carry out this experiment. Briefly, to untreated and treated A549 cells (1.5×10^6 cells/well) grown in six-well plates was added the JC-1 staining solution (100 μL/mL of cell media). The cells were incubated for 30 min, harvested, and analyzed by using the FACSCalibur-HTS flow cytometer (BD Biosciences) (20 000 events per sample were acquired).The FL1 channel was used to assess mitochondrial depolarization. Cell populations were analyzed using the FlowJo software (Tree Star).

Test [3] relates to A549 cells. As to the kind of experiment: Propidium iodide uptake, flow cytometry. The conditions noted are these: for PI uptake versus untreated control cells: 20 μM for 12 h; for effect of N-acetylcysteine pretreatment on induced PI uptake: N-acetylcysteine 3 mM for 1 h; for effect of necrostatin-1 on mediated PI uptake: necrostatin-1 60 μM. As to the method:
Intracellular ROS production and mitochondrial membrane depletion contribute to necroptosis. Cells undergoing necroptosis display necrosis-like morphological features such as loss of cell membrane integrity, increase in organelle and cell volume (oncosis), and intact nuclear membrane. To further test whether 1- and 2-treatment can trigger necroptosis, Hoechst 33258/propidium iodide (PI) double staining was carried out to determine nuclear membrane morphology and integrity. Hoechst 33258 is a DNA minor groove binder that is routinely used to visualize the nucleus without the need for cell permeabilization. When used without cell permeabilization agents, PI stains the nuclei of necrotic cells. Early-stage apoptotic and normal cells maintain cell membrane integrity and thus are not stained by PI. A549 cells were treated with 1 and 2 (20 μM for 12 h), incubated with Hoechst 33258 and PI, and imaged using a fluorescence microscope.
Propidium Iodide Uptake. Untreated and treated A549 cells (1.5×10^6 cells/well) grown in six-well plates were washed with PBS (1 mL×3), harvested, incubated with PI (5 μM), and analyzed by using the FACSCalibur-HTS flow cytometer (BD Biosciences) (20 000 events per sample were acquired). The FL2 channel was used to assess intracellular PI uptake. Cell populations were analyzed using the FlowJo software (Tree Star).

[4] abbreviates: Table 1, 72 h exposure, ± standard deviation, read-out: IC50 MRC-5 lung fibroblast.
Setting [5] is: Table A, average of three independent determinations, read-out: IC50 MRC5 (lung normal).

Where two headings read alike, the source gives them in different places.

Description for MRC-5: In vitro toxicity of the rhenium (v) oxo complexes, 1 and 2 towards a panel of human cell lines was determined using the colorimetic MTT [[3-(4,5-dimethylithiazol-2-yl)-2,5-diphenyltetrazolium bromide] assay.
The in vitro effect of rhenium(V) oxo complexes 1 and 2 toward a panel of human cell lines was determined by the colorimetric MTT [3-(4,5-dimethylthiazol-2-yl)-2,5-diphenyltetrazolium bromide] assay. […] The IC50 values, or concentration required to induce 50% cell death, were derived from dose—response curves and are summarized in Table 1.
Cells (2×10^3 cells/well) were seeded in a 96-well plate. […] 1 and 2 were prepared as 10 mM solutions in DMSO and diluted using media. The final concentration of DMSO in each well was 0.5%, and this amount was also present in the untreated control. After 72 h, the medium was removed, 200 μL of a 0.4 mg/mL solution of MTT in DMEM, RPMI, or McCoy's 5A was added, and the plate was incubated for an additional 1-2 h. The DMEM/MTT, RPMI/MTT, or McCoy's 5A/MTT mixture was aspirated, and 200 μL of DMSO was added to dissolve the resulting purple formazan crystals. The absorbance of the solution wells was read at 550 nm. Absorbance values were normalized to DMSO-containing control wells and plotted as the concentration of test compound versus % cell viability. IC50 values were interpolated from the resulting dose-dependent curves. The reported IC50 values are the average from at least three independent experiments, each of which consisted of six replicates per concentration level.

Consider `C[O][Re](=[O])([Cl])[Cl].c1ccc(-c2ccnc3c2ccc2c(-c4ccccc4)ccnc23)cc1` [Compound 1, [ReO(OMe)(4,7-diphenyl-1,10-phenanthroline)-Cl2]], for which the IC50 with MRC-5 (setting [4]) stood at 1350 ± 228 nM. For the same compound, the IC50 in the test with MRC-5 (setting [5]) stood at 1350 ± 228 nM. In the test on MRC-5, the “selectivity over normal fibroblast cells (IC50 higher in normal fibroblasts than in cancer cells)” value was “about 10 fold”. Moreover, the IC50 in test [1] worked out at 2840 ± 381 nM. Moreover, in the test on confluent A549 cells, the IC50 turned out to be 8610 ± 749 nM and the “IC50 higher in confluent A549 cells than in A549 cells in log phase growth” value turned out to be 40 fold. For the same compound, the “effect of co-incubation with necrostatin-1 on toxicity, PC-3” value in the test on PC-3 is “markedly decreased the toxicity”. Also, in the test on A549 cells [2], the “induced mitochondrial membrane depletion with necrostatin-1” value is recorded as “amplified” and the “JC-1 green fluorescence versus untreated cells (mitochondrial membrane disruption)” value is given as “increased green fluorescence”. Moreover, in the test with A549 cells [3], the “PI uptake versus untreated control cells” value is recorded as “higher PI uptake”, the “effect of N-acetylcysteine pretreatment on induced PI uptake” value was “significantly decreased” and the “effect of necrostatin-1 on mediated PI uptake” value is given as “could block”.

Turning to `C[O][Re-2]1(=[O])([Cl])([Cl])[n+]2cc(C)c(C)c3ccc4c(C)c(C)c[n+]1c4c32` [Compound 2, [ReO(OMe)(3,4,7,8-tetramethyl-1,10-phenanthroline)Cl2]], the IC50 in the test on MRC-5 (setting [4]) was 709 ± 76 nM. In addition, the IC50 in the test with MRC-5 (setting [5]) amounted to 709 ± 76 nM. Besides, the “selectivity over normal fibroblast cells (IC50 higher in normal fibroblasts than in cancer cells)” value with MRC-5 is on record as “about 10 fold”. For the same compound, the IC50 in test [1] is 1370 ± 84 nM. In the test on confluent A549 cells, the IC50 turned out to be 5240 ± 1990 nM and the “IC50 higher in confluent A549 cells than in A549 cells in log phase growth” value amounted to 40 fold. For the same compound, the “effect of co-incubation with necrostatin-1 on toxicity, PC-3” value in the test on PC-3 is listed as “markedly decreased the toxicity”. In the test with A549 cells [2], the “induced mitochondrial membrane depletion with necrostatin-1” value is on record as “amplified” and the “JC-1 green fluorescence versus untreated cells (mitochondrial membrane disruption)” value is recorded as “increased green fluorescence”. Further, in the test with A549 cells [3], the “PI uptake versus untreated control cells” value is given as “higher PI uptake”, the “effect of N-acetylcysteine pretreatment on induced PI uptake” value is “significantly decreased” and the “effect of necrostatin-1 on mediated PI uptake” value was “could block”.
